# Patent publication US9975910B2, “Hetero-fused cyclic compound” (Eisai R&D Management Co., Ltd., priority 2013, dated 2018)
# Key:
# [1] = Metabolic stability of pooled human liver microsomes; assay type: in vitro ADME; settings: for Residual rate of unchanged substance (%): 0.3 μM compound, 0.2 mg/mL microsomes, 37° C., NADPH; for microsomal CLint at 0.3 μM: ke/(concentration of pooled human liver microsomes), read-out: Hepatic intrinsic clearance; for Clearance of human liver microsomes compared with the respective Comparative Example: result in words
# Method: Evaluations on the metabolic stability of human liver microsomes prepared in Reference Examples 1 and 2 and Comparative Examples 1 and 2 produced using Examples were performed as follows.
# A test compound was added to an enzyme solution (pooled human liver microsomes (0.2 mg/mL), 100 mM Kpi, containing 0.1 mM EDTA), and was incubated in the presence of a coenzyme for a predetermined time at 37° C. The final concentration of the test compound was 0.3 μM. As the coenzyme, an NADPH-generating system (solution in which 60 mM MgCl2 solution containing 3.6 mM β-NADP^+, 90 mM glucose-6-phosphate, and 1 Unit/mL glucose-6-phosphate dehydrogenated enzyme was incubated at 37° C. for 5 minutes to generate NADPH) was used. After pre-incubation, part of the reaction solution was extracted; a double amount of a mixed solution of acetonitrile and methanol (7:3, containing 1.0 μM Propranolol as an internal standard substance) was added to terminate the reaction, and the concentration of the unchanged substance in the reaction solution was measured by LC-MS/MS. Based on the peak area of the unchanged substance obtained, the residual rate (%) of the unchanged substance was calculated wherein the residual rate at 0 min (incubation time) was 100%. Namely, the inclination of the straight line obtained when the value obtained by natural logarithmic conversion of the residual rate of the unchanged substance after a predetermined reaction time was plotted as the ordinate, and the reaction time was plotted as the abscissa was defined as an elimination rate constant (ke). Based on the obtained elimination rate constant ke, the hepatic intrinsic clearance of the test compound was calculated with the following expression: Hepatic intrinsic clearance (mL/min/mg protein)=ke/(concentration of pooled human liver microsomes: mg protein/mL)
# [2] = Evaluation on lipid solubility: distribution ratio (D) of 1-octanol to water by ODS column HPLC; assay type: physicochemical; settings: 1-octanol/water, pH 6.8, from HPLC retention on ODS column
# Method: A parameter of lipid solubility, i.e., a distribution ratio (D) of a 1-octanol to water (pH: 6.8) was determined with an ODS (silica gel having a surface modified with an octadecylsilyl group) column by the following method.
# The mobile phase shown in Table 2 was added to sodium nitrate (to marker) and six standard substances having known partition coefficients shown in Table 2 to prepare mixed solutions each containing 5 μg/mL sodium nitrate and a 10 μg/mL or 10 μL/mL standard substance; these mixed solutions were used as standard solutions. The mobile phase shown in Table 3 was added to a sample, the concentration was adjusted to 0.1 mM to prepare a sample solution. HPLC analysis of the standard solutions and the sample solution was performed on the following conditions, and the retention times (tr) of the standard substances and the sample were measured. From the retention factor (kstd) determined from the partition coefficient (log P) of the standard substance and Expression I, the regression coefficient (a) and the constant term (b) in Expression II were determined; using Expression III, the partition coefficient (log D) at a pH of 6.8 was calculated from the retention factor (ksmpt) of the sample; finally, the distribution ratio (D) of 1-octanol to water (pH: 6.8) was obtained.
# Reference: Exploring QSAR-Hydrophobic, and Steric Constants, Corwin Hansch, Albert Leo, and David Hoekman, ACS Professional Reference Book k=(tr−t0)/t0 Expression I log P=a×log kstd+b Expression II log D=a×log ksmp+b Expression III (2) Measurement Conditions
# [3] = system: C. albicans CAF2-1 strains; assay: Anticandidal activity (MIC measurement); assay type: cell-based; settings: for MIC: Candida albicans, CAF21STRAINS; for Anticandidal activity compared with amphotericin B: result in words
# Method: The anticandidal activity of Reference Examples 1, 2, and 3 and Comparative Examples 1, 2, and 3 produced using Examples and amphotericin B was measured as follows.
# C. albicans CAF2-1 strains were subjected to static culture in a Sabouraud dextrose liquid culture medium (SDB) at 30° C. for 48 hours; and the bacterial suspension was diluted with an RPMI1640 culture medium to prepare a 1.2×10^3 cells/mL bacterial suspension.
# The diluted solutions of eight test compounds in plates (A to H) were prepared using a U-bottomed 96-well plate. 10 μL of a dimethyl sulfoxide solution was poured into columns 2 to 12 of the individual plates. The weighed test compounds were separately dissolved in dimethyl sulfoxide to prepare 2.5 mg/mL solutions; then, these solutions (20 μL) were placed in column 1 of the prepared plates, and were subjected to two-fold serial dilution in 12 steps on the plates (10 μL of solution+10 μL of dimethyl sulfoxide solution). The diluted solutions of the test compounds each were placed in a flat-bottomed 96-well plate for MIC measurement in an amount of 1 μL to prepare plates of the diluted test compound.
# The bacterial suspension prepared in (1) (99 μL/well) was inoculated into the flat-bottomed 96-well plate containing the diluted solutions of the test compounds (1 μL/well) prepared in (2), and was subjected to static culture at 35° C. for 42 to 48 hours under an aerobic condition.
# [4] = Evaluation on solubility (HPLC-UV, phosphate-buffered saline); assay type: physicochemical; settings: for solubility: aqueous buffer, kinetic from dmso stock, Dulbecco's phosphate-buffered saline pH 7 (GIBCO), room temperature, about 15 minutes shaking; for Solubility compared with Comparative Example 1 and Comparative Example 2: phosphate-buffered saline pH 7, result in words
# Method: The supernatant was then separated through vacuum filtration operation. A dimethyl sulfoxide solution (sample concentration: 100 μM) was used as a standard solution, and the sample concentration in the supernatant determined by an HPLC-UV method was defined as solubility. Test solution: pH of 7, GIBCO™ (Dulbecco's phosphate-buffered saline, Invitrogen Corporation)
# [5] = standard substances, known values (Hansch, Leo, Hoekman); cited from earlier work
# [6] = RPMI1640, 35° C., 42 to 48 hours, visually determined
Compound,Residual rate of unchanged substance (%) ([1]; After 0 min (defined as 100%)),Residual rate of unchanged substance (%) ([1]; After 15 min),Residual rate of unchanged substance (%) ([1]; After 30 min),Residual rate of unchanged substance (%) ([1]; After 60 min),microsomal CLint at 0.3 μM [1] [µL/min/mg],chromatographic logD [2],"MIC [3, 6] [µg/mL]",Anticandidal activity compared with amphotericin B [3],solubility [4] [µM],Clearance of human liver microsomes compared with the respective Comparative Example [1],Solubility compared with Comparative Example 1 and Comparative Example 2 [4],Partition coefficient (logP) [5],"Anticandidal activity (MIC) [3, 6] [µg/mL]"
"Cc1cc(Cc2ccc(CNC(=O)c3ccc(N)nc3N)cc2)sc1C [Comparative Example 1, 2,6-Diamino-N-({4-[(4,5-dimethylthiophen-2-yl)methyl]phenyl}methyl)-pyridine-3-carboxamide, reference compound]",100.0,93.1,77.0,56.2,50,3.27,0.13,strong anticandidal activity equal to that of amphotericin B,0.2,–,–,–,–
"Cc1nc(N)c(C(=O)NCc2ccc(COc3ccccn3)cc2)nc1C [Comparative Example 2, 3-Amino-5,6-dimethyl-N-({4-[(pyridin-2-yloxy)methyl]phenyl}methyl)pyrazine-2-carboxamide, reference compound]",100.0,73.0,53.7,30.9,98,3.26,0.063,strong anticandidal activity equal to that of amphotericin B,0.9,–,–,–,–
Nc1ccc(C(=O)NCc2ccc(Cc3cc4c(s3)COC4)cc2)c(N)n1 [Reference Example 1],100.0,83.6,75.9,61.4,39,2.15,0.25,strong anticandidal activity equal to that of amphotericin B,13.9,improved,higher,–,–
"Nc1nc2c(nc1C(=O)NCc1ccc(COc3ccccn3)cc1)COC2 [Reference Example 2, 5-Amino-N-({4-[(pyridin-2-yloxy)methyl]phenyl}methyl)-1,3-dihydrofuro[3,4-b]pyrazine-6-carboxamide]",100.0,87.0,77.6,65.4,35,2.72,0.5,strong anticandidal activity equal to that of amphotericin B,2.1,improved,higher,–,–
Nc1nc2c(cc1C(=O)NCc1ccc(OCc3ccccc3)cc1)COC2 [Reference Example 3],100.0,78.0,–,–,82,2.72,2,strong anticandidal activity equal to that of amphotericin B,–,improved,–,–,–
"Cc1cc(C(=O)NCc2ccc(OCc3ccccc3)cc2)c(N)nc1C [Comparative Example 3, 2-Amino-N-(4-(benzyloxy)benzyl)-5,6-dimethylnicotinamide, reference compound]",100.0,65.0,–,–,150,3.41,0.13,strong anticandidal activity equal to that of amphotericin B,–,–,–,–,–
CCCCc1ccccc1 [n-Butylbenzene],–,–,–,–,–,–,–,–,–,–,–,4.38,–
C[C@@H]1[C@H](O)[C@@H](C)/C=C/C=C/C=C/C=C/C=C/C=C/C=C/[C@H](O[C@@H]2O[C@H](C)[C@@H](O)[C@H](N)[C@@H]2O)C[C@@H]2O[C@](O)(C[C@@H](O)C[C@@H](O)[C@H](O)CC[C@@H](O)C[C@@H](O)CC(=O)O[C@H]1C)C[C@H](O)[C@H]2C(=O)O [Amphotericin B],–,–,–,–,–,–,–,–,–,–,–,–,1.6
